Assay [1] concerns Streptococcus faecalis ATCC 8043. Kind of assay: Determination of MIC and MBC by microdilution method, Streptococcus faecalis ATCC 8043. The conditions noted are these: for MBC / MIC: Enterococcus faecalis; for MBC: ATCC8043, S. faecalis ATCC 8043, read-out: Minimal bactericidal concentration (MBC); for MIC: ATCC8043, read-out: Minimal inhibitory concentration (MIC); for MIC / Minimal bactericidal concentration (MBC) / Minimal inhibitory concentration (MIC): S. faecalis ATCC 8043; for MIC / Minimal inhibitory concentration (MIC): Mueller-Hinton broth, 18 hours at 37°. The assay is classed as cell-based. The method, then:
(§1) The compound have been tested towards 7 reference strains:
Streptococcus faecalis ATCC 8043
(§2) The preparation of these mother liquors has been performed and vary depending on the molecules as a function of the solubility criterions. Inoculation has been done by adding in each will, 10 μl of a dilution in saline of 18 hours old broth in a brain-heart broth, such as each well contains about 10^6 bacterias/ml. […]
(In broth dilution the organism is exposed to a series of concentrations in liquid medium.)

For assay [2], the system named is Bacillus subtilis ATCC 9372. Put plainly: Determination of MIC and MBC by microdilution method, Bacillus subtilis ATCC 9372. The assay is classed as cell-based. The conditions noted are these: for MIC: ATCC9372, Mueller-Hinton broth, read-out: Minimal inhibitory concentration (MIC); for MIC / Minimal inhibitory concentration (MIC): 18 hours at 37°; for MBC: ATCC9372, read-out: Minimal bactericidal concentration (MBC); for Minimal inhibitory concentration (MIC): Mueller-Hinton broth. How it is done:
as §1
Bacillus subtilis ATCC 9372
(§3) The determination of minimal inhibitory concentrations (MIC) has been performed using a microdution method (microplates and inoculator Dynatech) in liquid medium (MUELLER-HINTON broth) under a volume of 100 μl and for a range of concentrations from 128 to 0.06 mg/l, prepared from a mother liquor of antibiotics titrating 512 mg/l. The preparation of these mother liquors has been performed and vary depending on the molecules as a function of the solubility criterions. Inoculation has been done by adding in each will, 10 μl of a dilution in saline of 18 hours old broth in a brain-heart broth, such as each well contains about 10^6 bacterias/ml.
(§4) The Minimal Inhibitory Concentrations are read as the first concentration of antibiotic which will not give a growth macroscopically detectable after 18 hours incubating at 37°.

Assay [3] relates to Staphylococcus aureus ATCC 25923. Put plainly: Determination of MIC and MBC by microdilution method, Staphylococcus aureus ATCC 25923. In kind it is cell-based. The conditions noted are these: for MIC / MBC: Staphylococcus aureus; for MIC: ATCC25923, 18 h, read-out: Minimal inhibitory concentration (MIC); for MIC / Minimal bactericidal concentration (MBC) / Minimal inhibitory concentration (MIC): S. aureus ATCC 25923; for MIC / Minimal inhibitory concentration (MIC): Mueller-Hinton broth, 18 hours at 37°; for MBC: ATCC25923, S. aureus ATCC 25923, read-out: Minimal bactericidal concentration (MBC). The method, then: as §1
Staphylococcus aureus ATCC 25923
as §3, §4

Assay [4] deals with Escherichia coli ATCC 25922. Put plainly: Determination of MIC and MBC by microdilution method, Escherichia coli ATCC 25922. The conditions noted are these: E. coli ATCC 25922; for MIC / MBC: Escherichia coli, ATCC25922; for MIC / Minimal inhibitory concentration (MIC): Mueller-Hinton broth, 18 hours at 37°; for MIC: read-out: Minimal inhibitory concentration (MIC); for MBC: read-out: Minimal bactericidal concentration (MBC). In kind it is cell-based. How it is done: as §1
Escherichia coli ATCC 25922
as §3, §4

Assay [5] deals with Pseudomonas aeruginosa ATCC 22853. Kind of assay: Determination of MIC and MBC by microdilution method, Pseudomonas aeruginosa ATCC 22853. The assay is classed as cell-based. The conditions noted are these: for MIC / MBC: Pseudomonas aeruginosa; for MIC: ATCC22853, 18 h, read-out: Minimal inhibitory concentration (MIC); for MIC / Minimal bactericidal concentration (MBC) / Minimal inhibitory concentration (MIC): P. aeruginosa ATCC 22853; for MIC / Minimal inhibitory concentration (MIC): Mueller-Hinton broth, 18 hours at 37°; for MBC: ATCC22853, P. aeruginosa ATCC 22853, read-out: Minimal bactericidal concentration (MBC). How it is done:
as §1
Pseudomonas aeruginosa ATCC 22853
as §2

The subject of assay [6] is S. aureus CB-951. Kind of assay: Determination of MIC and MBC by microdilution method, S. aureus CB-951. In kind it is cell-based, Staphylococcus aureus. The conditions noted are these: erythromycinolincomycino, pefloxacino resistant; for MIC / MBC: Staphylococcus aureus; for MIC: CB951, 18 h, read-out: Minimal inhibitory concentration (MIC); for MIC / Minimal bactericidal concentration (MBC) / Minimal inhibitory concentration (MIC): S. aureus CB-951, methicillino; for MIC / Minimal inhibitory concentration (MIC): Mueller-Hinton broth, 18 hours at 37°; for MBC: CB951, S. aureus CB-951, methicillino, read-out: Minimal bactericidal concentration (MBC). How it is done:
as §1
Staphylococcus aureus CB 951
as §3, §4

Assay [7] deals with Acinetobacter Baumanii ATCC 17904. Kind of assay: Determination of MIC and MBC by microdilution method, Acinetobacter. In kind it is cell-based. The conditions noted are these: for MIC / MBC: Acinetobacter baumannii; for MIC: ATCC17904, 18 h, read-out: Minimal inhibitory concentration (MIC); for MIC / Minimal bactericidal concentration (MBC) / Minimal inhibitory concentration (MIC): Acinetobacter Baumanii ATCC 17904; for MIC / Minimal inhibitory concentration (MIC): Mueller-Hinton broth, 18 hours at 37°; for MBC: ATCC17904, Acinetobacter Baumanii ATCC 17904, read-out: Minimal bactericidal concentration (MBC). How it is done: The compound have been tested towards 7 reference strains: […]
as §3, §4

Converted amounts (≈) assume the structure as drawn.

For `CCn1cc(C(=O)O)c(=O)c2cc(F)c(N3CCC(CN)CC3)c(F)c21` [Compound 1, 7-(4-aminomethylpiperidinyl-1) 6,8-difluoro 1-ethyl 4-oxo 1,4-dihydroquinoleinyl-3 carboxylic acid], the MBC in assay [1] stood at 0.5 µg/mL (≈ 1.37 µM); in assay [2], 0.25 µg/mL (≈ 0.684 µM); in assay [3], 0.25 µg/mL (≈ 0.684 µM); in assay [4], 0.5 µg/mL (≈ 1.37 µM); in assay [5], 4 µg/mL (≈ 10.9 µM); in assay [6], 2 µg/mL (≈ 5.47 µM). In assay [7], the MBC was 0.5 µg/mL (≈ 1.37 µM). For the same compound, the MIC worked out at 0.5 µg/mL (≈ 1.37 µM) in assay [1]; 0.25 µg/mL (≈ 0.684 µM) in assay [2]; 0.25 µg/mL (≈ 0.684 µM) in assay [3]; 0.5 µg/mL (≈ 1.37 µM) in assay [4]; 2 µg/mL (≈ 5.47 µM) in assay [5]; 2 µg/mL (≈ 5.47 µM) in assay [6]. In addition, the MIC in assay [7] was 0.25 µg/mL (≈ 0.684 µM).
On to `C=CCn1cc(C(=O)O)c(=O)c2cc(F)c(N3CCC(CN)CC3)c(F)c21` [Compound 6, 7-(4-aminomethylpiperidinyl-1) 6,8-difluoro 1-allyl 4-oxo 1,4-dihydroquinoleinyl-3 carboxylic acid], for which the MBC was 4 µg/mL (≈ 10.6 µM) in assay [1]; 2 µg/mL (≈ 5.3 µM) in assay [2]; 2 µg/mL (≈ 5.3 µM) in assay [3]; 2 µg/mL (≈ 5.3 µM) in assay [4]; 16 µg/mL (≈ 42.4 µM) in assay [5]; 64 µg/mL (≈ 170 µM) in assay [6]. Further, the MBC in assay [7] was found to be 2 µg/mL (≈ 5.3 µM). Moreover, the MIC in assay [1] came out at 1 µg/mL (≈ 2.65 µM); in assay [2] it was 1 µg/mL (≈ 2.65 µM); in assay [3] it was 1 µg/mL (≈ 2.65 µM); in assay [4], 1 µg/mL (≈ 2.65 µM); in assay [5], 8 µg/mL (≈ 21.2 µM); in assay [6], 32 µg/mL (≈ 84.8 µM). Besides, the MIC in assay [7] was determined as 1 µg/mL (≈ 2.65 µM).
Take `C=CCn1cc(C(=O)O)c(=O)c2cc(F)c(N3CCC(NC(C)=O)CC3)c(F)c21` [Compound 9, 7-(4-acetylaminopiperidinyl-1) 6,8-difluoro 1-allyl 4-oxo 1,4-dihydroquinoleinyl-3 carboxylic acid]: the “Minimal bactericidal concentration (MBC)” value was 16 µg/mL (≈ 39.5 µM) in assay [1]; 2 µg/mL (≈ 4.93 µM) in assay [2]; 4 µg/mL (≈ 9.87 µM) in assay [3]; 32 µg/mL (≈ 78.9 µM) in assay [4]; above 128 µg/mL in assay [5]; 8 µg/mL (≈ 19.7 µM) in assay [6]. For the same compound, the “Minimal bactericidal concentration (MBC)” value in assay [7] was 8 µg/mL (≈ 19.7 µM). Also, the “Minimal inhibitory concentration (MIC)” value in assay [1] is 4 µg/mL (≈ 9.87 µM); in assay [2] it was 1 µg/mL (≈ 2.47 µM); in assay [3], 1 µg/mL (≈ 2.47 µM); in assay [4], 16 µg/mL (≈ 39.5 µM); in assay [5], above 128 µg/mL; in assay [6], 4 µg/mL (≈ 9.87 µM). Further, the “Minimal inhibitory concentration (MIC)” value in assay [7] was 4 µg/mL (≈ 9.87 µM).
Regarding `C=CCn1cc(C(=O)O)c(=O)c2cc(F)c(N3CCC(CNC(=O)NC(=O)c4ccccc4)CC3)c(F)c21` [Compound 11, 7-[(4-benzoylaminocarboxamidomethyl)piperidinyl-1] 6,8-difluoro 1-allyl 4-oxo 1,4-dihydroquinoleinyl-3 carboxylic acid], the “Minimal bactericidal concentration (MBC)” value was 32 µg/mL (≈ 61 µM) in assay [1]; 1 µg/mL (≈ 1.91 µM) in assay [2]; 4 µg/mL (≈ 7.63 µM) in assay [3]; above 128 µg/mL in assay [4]; above 128 µg/mL in assay [5]; 4 µg/mL (≈ 7.63 µM) in assay [6]. The “Minimal bactericidal concentration (MBC)” value in assay [7] was found to be 4 µg/mL (≈ 7.63 µM). The “Minimal inhibitory concentration (MIC)” value in assay [1] is 16 µg/mL (≈ 30.5 µM); in assay [2], 0,5 μg/ml; in assay [3], 1 µg/mL (≈ 1.91 µM); in assay [4] it was 128 µg/mL (≈ 244 µM); in assay [5], 128 µg/mL (≈ 244 µM); in assay [6], 4 µg/mL (≈ 7.63 µM). In assay [7], the “Minimal inhibitory concentration (MIC)” value was determined as 1 µg/mL (≈ 1.91 µM).

The values are drawn from US5420140A, “Difluorinated quinolones useful for treating bacterial infections” (Bouchara S.A., priority 1991, dated 1995).
